From PubChem BioAssay AID1919013 (Molecular Pharmacology Branch, DTP, NCI, 2023)
pIC50: −log10 of the molar value.

Test system: LG0703-F498-PDC complex spheroid growth
Experiment: Anticancer human tumor LG0703-F498-PDC patient-derived lung adenocarcinoma cell line growth inhibition [AhR]
Details: for pIC50: curve of first compound; for viability, T/C: stronger effect = lower value
Procedure, shortened: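 Agents were dosed in half-log steps down from roughly clinical Cmax, or from 10 microM where Cmax was unknown, alone and with AhR antagonists. Read-out: percent test/control growth of tumor spheroids containing HUVEC and MSC stromal cells.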
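Further: luminescence taken as a proxy for viable cell amount.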
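Wherever viability, T/C is given: percent of DMSO vehicle control where 100% means growth equal to vehicle.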

Work on `CC(C)c1c(-c2ccccc2)nc2c(C#N)c[nH]n2c1=O` + CC(CO)NC(=O)c1cc(-c2ccc(Cl)cc2)nn(-c2cnn(C)c2)c1=O yielded a pIC50 (second compound 0.1 µM) of less than 5.00, a pIC50 (second compound 0.316 µM) of less than 5.00 and a pIC50 (second compound 1 µM) of less than 5.00. It also gave a pIC50 (second compound 3.16 µM) of less than 5.00, a pIC50 (second compound 10 µM) of less than 5.00 and a viability, T/C (second compound 0.1 µM, first compound 0.0316 µM) of 94.2%. The viability, T/C (second compound 0.1 µM, first compound 0.1 µM) was 96.5%, the viability, T/C (second compound 0.1 µM, first compound 0.316 µM) was 87.5% and the viability, T/C (second compound 0.1 µM, first compound 1 µM) was 86.1%. For the same compound, the viability, T/C (second compound 0.1 µM, first compound 3.16 µM) was 87.3%, the viability, T/C (second compound 0.1 µM, first compound 10 µM) was 80.8% and the viability, T/C (second compound 0.316 µM, first compound 0.0316 µM) was 88.2%. For the same compound, the viability, T/C (second compound 0.316 µM, first compound 0.1 µM) was 95.5%, the viability, T/C (second compound 0.316 µM, first compound 0.316 µM) was 100% and the viability, T/C (second compound 0.316 µM, first compound 1 µM) was 78.9%. For the same compound, the viability, T/C (second compound 0.316 µM, first compound 3.16 µM) was 84.1%, the viability, T/C (second compound 0.316 µM, first compound 10 µM) was 78.5% and the viability, T/C (second compound 1 µM, first compound 0.0316 µM) was 82%. It also gave a viability, T/C (second compound 1 µM, first compound 0.1 µM) of 88.7%, a viability, T/C (second compound 1 µM, first compound 0.316 µM) of 83.8% and a viability, T/C (second compound 1 µM, first compound 1 µM) of 87.3%. It also gave a viability, T/C (second compound 1 µM, first compound 3.16 µM) of 83.4%, a viability, T/C (second compound 1 µM, first compound 10 µM) of 82% and a viability, T/C (second compound 3.16 µM, first compound 0.0316 µM) of 70.3%. For the same compound, the viability, T/C (second compound 3.16 µM, first compound 0.1 µM) was 96.7%, the viability, T/C (second compound 3.16 µM, first compound 0.316 µM) was 73.3% and the viability, T/C (second compound 3.16 µM, first compound 1 µM) was 69%. For the same compound, the viability, T/C (second compound 3.16 µM, first compound 3.16 µM) was 85%, the viability, T/C (second compound 3.16 µM, first compound 10 µM) was 78.1% and the viability, T/C (second compound 10 µM, first compound 0.0316 µM) was 73%. It also gave a viability, T/C (second compound 10 µM, first compound 0.1 µM) of 76.5%, a viability, T/C (second compound 10 µM, first compound 0.316 µM) of 66.2% and a viability, T/C (second compound 10 µM, first compound 1 µM) of 69.2%. The viability, T/C (second compound 10 µM, first compound 3.16 µM) was 67.4% and the viability, T/C (second compound 10 µM, first compound 10 µM) was 69.4%.
